The results in this text go back to patent US4719235A, “Methods and compositions for treating viral infection” (Kern; Gerald N., priority 1985, dated 1988).

The subject of data set [1] is primary fibroblasts from human foreskin. Put plainly: Cytotoxicity in solutions containing serum, foreskin fibroblasts. The conditions noted are these: 0.01 mg/ml, 2% fetal calf serum, 24 hours, 37° C. Further details: key to Foreskin (Cytotoxic effect): 0: Cells have normal morphology; 4+: >90% of cells showed CTE.; ±c: less than 10% of cells showed CTE. The class given is cell-based.
Experimental: The cells were grown to confluency in 60×15 mm dishes. The cell monolayers were washed free of growth medium and 5 ml of serum-less growth medium containing docusate sodium at various concentrations was added. The curtures were incubated 24 hours at 37° C. and the cells then examined microscopically for cytotoxic effects (CTE). Controls were done in the same manner except that they were not exposed to docusate sodium.
The same procedure that was used for Example 17 was used for this Example except that the medium used for growing the cells contained 2% by volume fetal calf serum.

Test in data set [2]: as above
It is filed as cell-based, human. Further details: key to Foreskin (Cytotoxic effect): 0: Cells have normal morphology; 4+: >90% of cells showed CTE.; ±c: less than 10% of cells showed CTE. The conditions noted are these: human, foreskin fibroblasts, 2% fetal calf serum, 37° C., read-out: Foreskin (Cytotoxic effect).

Data set [3] deals with HSV-2. Put plainly: Pretreatment of MA-104 cells prior to exposure to HSV-2. The conditions noted are these: 0.02 mg/ml. It is filed as cell-based, Herpes Simplex Type 2. On the procedure: In this Example the effect that initially contacting (pretreating) MA-104 cells with docusate sodium has on subsequent exposure of such pretreated cells to HSV-2 virus was studied.
MA-104 cells were washed free of growth medium and the cells were exposed to 0.02 mg/ml docusate sodium in serum-less growth medium for one hour. The docusate sodium solution was poured off, the cells washed twice, and then exposed to appropriately diluted HSV-2. A control solution prepared as above except for exposure to docusate sodium was also provided. After one hour at 37° C., the cells were overlayed with agar and incubated for 3 days at 37° C. to allow plaques to develop.

The next data set deals with Adenovirus. Put plainly: Pretreatment of HeLa cells prior to exposure to Adenovirus. To be noted: 0.125 mg/ml in 10% fetal calf serum MEM. It is filed as cell-based. On the procedure:
HeLa cells were washed free of growth medium and the cells were exposed to 0.125 mg/ml docusate sodium in 10% fetal calf serum MEM for 15 minutes. The docusate sodium solution was poured off, the cells rinsed with phosphate buffered saline and then exposed to appropriately diluted Adenovirus. A control solution prepared as above except for exposure to docusate sodium was also provided. After one hour at 37° C., the cells were overlayed with agar and incubated for 3 days at 37° C. to allow plaques to develop.

Data set [4] has as its system HSV-2. Put plainly: Treatment of MA-104 cells infected with HSV-2. It is filed as cell-based, Herpes Simplex Type 2. The conditions noted are these: 0.02 mg/ml for one hour at 37° C., 6 and 24 hours after infection. On the procedure: MA-104 cells were washed free of growth medium and exposed to appropriately diluted HSV-2 for one hour at 37° C. At 6 and 24 hours after infection, the MA-104 cells were exposed to a solution containing 0.02 mg of docusate sodium per ml of solution for one hour at 37° C. The docusate sodium solution was poured off, agar overlay added, and the exposed cells incubated for 3 days at 37° C. to provide for plaque development.

For a further data set, the system named is MA-104. Nature of the data set: Cytotoxicity in solutions containing serum, MA-104. It is filed as cell-based, monkey. More on the design: key: 0: Cells have normal morphology; 4+: >90% of cells showed CTE.; ±c: less than 10% of cells showed CTE. The conditions noted are these: 2% fetal calf serum, 24 hours, 37° C.
For data set [5], the system named is HSV-2. Nature of the data set: Titration of HSV-2 after contact with docusate sodium solutions containing 10% fetal calf serum. It is filed as cell-based, Herpes Simplex Type 2.

Molecules are shown by their SMILES. Like-named read-outs stand apart in the source and are kept apart here.

As to `CCCCC(CC)COC(=O)CC(C(=O)OCC(CC)CCCC)S(=O)(=O)O` (stereo not drawn) [docusate sodium, 1,4-bis(2-ethylhexyl)sodium sulfosuccinate], the “Foreskin (Cytotoxic effect)” value in data set [1] was found to be 0. The values for the cytotoxicity at 24 h in data set [2] (0.02 mg/ml), in data set [2] (0.03 mg/ml) and in data set [2] (0.04 mg/ml) were < 10%, > 90% and > 90%, respectively. Further, in the data set with HSV-2 [3] (pretreatment), the “plaque formation (conclusion)” value is “substantial drop in plaque formation”. Further, in the data set with HSV-2 [3] (pretreatment one hour, serum-less (control 548)), the “plaque forming units/ml (pfu/ml)” value is 26 pfu/ml. Moreover, the inhibition at 20 µg/mL in the data set with HSV-2 [3] (Human alphaherpesvirus 2, MA104, 1 h, pretreatment one hour, serum-less, read-out: % decrease in pfu) was determined as 95%. For the same compound, in the data set with Adenovirus (pretreatment 15 minutes (control 180,000)), the plaque forming units/ml is 175,000 pfu/ml. Besides, the inhibition at 125 µg/mL in the data set on Adenovirus (unidentified adenovirus, HeLa, 0.25 h, pretreatment 15 minutes, read-out: % decrease in pfu) worked out at 3%. For the same compound, the “inactivation of HSV-2 in cells infected prior to contact (conclusion)” value in the data set with HSV-2 [4] was “not effective in inactivating HSV-2 virus in cells infected with HSV-2”. Moreover, the “MA-104 (Cytotoxic effect)” value in the data set with MA-104 (0.01 mg/ml), in the data set on MA-104 (0.02 mg/ml), in the data set with MA-104 (0.03 mg/ml) and in the data set on MA-104 (0.04 mg/ml) was 0 in each case. Moreover, the “concentration required for a given percentage of HSV-2 inactivation (conclusion)” value in the data set on HSV-2 [5] (10% fetal calf serum vs serum absent) was “higher concentrations of docusate sodium were required”. Further, in the data set with HSV-2 [5] (Human alphaherpesvirus 2, 0.25 h, 0.01 mg/ml, 10% fetal calf serum, 15 min, 37° C., read-out: % Inactivation of HSV-2), the killing at 10 µg/mL was 10%. Moreover, the killing at 100 µg/mL in the data set on HSV-2 [5] (Human alphaherpesvirus 2, 0.25 h, 0.1 mg/ml, 10% fetal calf serum, 15 min, 37° C., read-out: % Inactivation of HSV-2) turned out to be 10%. Also, the killing at 200 µg/mL in the data set on HSV-2 [5] (Human alphaherpesvirus 2, 0.25 h, 0.2 mg/ml, 10% fetal calf serum, 15 min, 37° C., read-out: % Inactivation of HSV-2) was found to be 95%.
